In US20230097475A1, “TREATMENT FOR CHONDRODYSTROPHIA” (Kyoto University, priority 2020, published 2023):

Assays:
FGFR3 ACH mice [1] = assay: Bone extension effect using achondroplasia model mice, male and female (Example 3); type: in vivo; details: male 1, 3 or 10 mg/kg, female 1, 3 or 6 mg/kg, measured at 43 days old, vs vehicle group
Procedure: (§1) FGFR3 ACH mice (Naski, M. C. et al., Development, 1998, 125(24): 4977-88; hereinbelow, simply referred to as ACH mice) were used. FVB strain ACH mice were subjected to artificial insemination to produce a large number of F1 hybrid mice. Genomic DNA was then extracted, and the gene type was determined by a PCR method. […] Mice at the age of 43 days were euthanized, and the weight measurement and the bone (femur, tibia, and ulna) length measurement by X-ray photographing were performed. The X-ray photographing was performed using a Faxitron X-Ray DX-50 (AcroBio Corporation), and the measurements were performed with Image J. For testing significance, a Dunnett's multiple comparison test was conducted. In FIGS. 1 to 5, * indicates p<0.05, ** indicates p<0.01, and *** indicates p<0.001.
For testing significance, a Dunnett's multiple comparison test was conducted. In FIGS. 6 to 11, * indicates p<0.05, ** indicates p<0.01, *** indicates p<0.001, and **** indicates p<0.0001.

[2] = system: TD1-iPS cells and ACH-iPS cells; assay: Drug efficacy in disease iPS cell models, chondrocyte differentiation; type: cell-based, human
Text: iPS cell lines were established from dermal fibroblasts of patients with thanatophoric dysplasia type I (TD1, R248C) and cartilage intangibility (ACH, […]), and dermal fibroblasts of healthy individuals, and induced their differentiation into chondrocytes. Cartilage tissue was formed from healthy iPS cells, whereas a cartilage component was reduced in tissue induced from TD1-iPS cells and tissue induced from ACH-iPS cells (Yamashita et al., Nature, 2014, 513 (7519): 507-11).
Rosuvastatin was used as a positive control. As evaluation items, tissue section staining (Safranin staining), and the expression of mRNAs of COL2A1 and Aggrecan (ACAN) were used as indexes. For testing significance, an unpaired test was conducted. In FIG. 13, * indicates p<0.05.

FGFR3 ACH mice [3] = assay: Bone extension effect using achondroplasia model mouse (Example 2); type: in vivo
Procedure: as §1
Subsequently, the femur was isolated from the mice after dosing. The cartilage growth plate was then stained with safranin O, and the length thereof was measured. The average width of the growth plate of ACH mice was 148.3.

mutant FGFR3G^380R/+ = details: at 50 nM; cited from earlier work
[4] = system: FGFR3^Y367C/+ mouse model of achondroplasia; details: reported in NPL 6; cited from earlier work
[5] = 1 nM, 10th week of differentiation induction, vs cells free of Compound 1, FIG. 13

| Structure (SMILES) | Bone extension effect (femur, tibia, ulna length) (FGFR3 ACH mice [1]) | Safranin staining of glycosaminoglycans (cartilage extracellular matrix) ([2]; 1 nM added at each medium change from day 3, analysis at 10th week of differentiation induction, FIG. 12) | Expression of mRNA of ACAN [2, 5] | Expression of mRNA of COL2A1 [2, 5] | Average width of the femur growth plate (safranin O staining) (FGFR3 ACH mice [3]; ACH mice after dosing, dose not stated, ACH mice without compound 148.3, FIG. 4) [μm] | Bone extension effect (femur, tibia, ulna length; growth plate cartilage thickness) (FGFR3 ACH mice [3]; ACH mice, 0.1, 1 or 3 mg/kg intraperitoneal once a day, 5 days on 2 days off, age 21 to 42 days, measured at 43 days old, vs vehicle group) | Kinase inhibitory effect (mutant FGFR3G^380R/+) | Treatment effect on mouse model of achondroplasia [4] |
| --- | --- | --- | --- | --- | --- | --- | --- | --- |
| C=CC(=O)N1CC[C@H](n2nc(C#Cc3cc(OC)cc(OC)c3)c3c(N)ncnc32)C1 [Compound 1, 1-[(3S)-3-[4-amino-3-[2-(3,5-dimethoxyphenyl)ethynyl]-1H-pyrazolo[3,4-d]pyrimidin-1-yl]-1-pyrrolidinyl]-2-propen-1-one] | concentration-dependent bone extension effect was observed | positive safranin staining image was observed | increased | increased | 206.4 | concentration-dependent bone extension effect was observed |  |  |
| CCN1CCN(c2ccc(Nc3cc(N(C)C(=O)Nc4c(Cl)c(OC)cc(OC)c4Cl)ncn3)cc2)CC1 [NVP-BGJ398] |  |  |  |  |  |  | has a kinase inhibitory effect | has a treatment effect |
